Source: US10947271B2, “Antibacterial agents” (THE UNIVERSITY OF QUEENSLAND, priority 2014, dated 2021)

How the values were obtained:
Assay type in all cases: cell-based
Conditions in all cases: 24 h incubation, visual reading
[1] = system: Streptococcus pneumoniae MDR ATCC 700677; assay: MIC assay, S. pneumoniae MDR ATCC 700677
Procedure, shortened: (§1)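 Overnight MHB cultures at 37° C were diluted 40-fold and grown 2-3 hrs to mid-log, then added at 5×10e5 CFU/mL to twofold compound dilutions (8 to 0.003 μg/ml). Plates were incubated 24 h at 37° C and MIC scored by eye.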

[2] = system: Staphylococcus aureus MRSA ATCC 43300; assay: MIC assay, S. aureus MRSA ATCC 43300
Procedure, shortened: as §1

[3] = system: Enterococcus faecium MDR Van A ATCC 51559; assay: MIC assay, E. faecium MDR Van A ATCC 51559
Procedure, shortened: as §1

Row | SMILES | Minimum Inhibitory Concentration (MIC) S. pneumoniae ATCC 700677 [1] | Minimum Inhibitory Concentration (MIC) Staph. aureus ATCC43300 [2] | Minimum Inhibitory Concentration (MIC) E. faecium ATCC51559 [3]
1 | CCCCCCCCCC(=O)NC(CCCCN)C(=O)NC(CCCNC(=N)N)C(=O)NCCCNC(=O)C1NC(=O)C2NC(=O)C(NC(=O)C3NC(=O)C(CC(N)=O)NC(=O)C(NC(=O)C(CC(C)C)NC)C(O)c4ccc(c(Cl)c4)Oc4cc3cc(c4OC3OC(CO)C(O)C(O)C3OC3CC(C)(N)C(O)C(C)O3)Oc3ccc(cc3Cl)C2O)c2ccc(O)c(c2)-c2c(O)cc(O)cc21 (stereo not drawn) [MCC_005486] | xxxx (xxxx = 0.01-<0.1) | xxxxx (xxxxx = <0.01) | xx (xx = 1-4)
2 | CCCCCC1CCC(C(=O)N[C@@H](CCCCN)C(=O)N[C@@H](CCCCN)C(=O)N[C@@H](CCCCNC(=O)[C@H]2NC(=O)[C@H]3NC(=O)[C@H](NC(=O)[C@@H]4NC(=O)[C@H](CC(N)=O)NC(=O)[C@H](NC(=O)[C@@H](CC(C)C)NC)[C@H](O)c5ccc(c(Cl)c5)Oc5cc4cc(c5O[C@@H]4O[C@H](CO)[C@@H](O)[C@H](O)[C@H]4O[C@H]4C[C@](C)(N)[C@H](O)[C@H](C)O4)Oc4ccc(cc4Cl)[C@H]3O)c3ccc(O)c(c3)-c3c(O)cc(O)cc32)C(=O)O)CC1 (stereo partly drawn) [MCC_005503] | xxxx (xxxx = 0.01-<0.1) | xxxx (xxxx = 0.01-<0.1) | xx (xx = 1-4)
3 | CNC(=O)C(CCCCNC(=O)C1NC(=O)C2NC(=O)C(NC(=O)C3NC(=O)C(CC(N)=O)NC(=O)C(NC(=O)C(CC(C)C)NC)C(O)c4ccc(c(Cl)c4)Oc4cc3cc(c4OC3OC(CO)C(O)C(O)C3OC3CC(C)(N)C(O)C(C)O3)Oc3ccc(cc3Cl)C2O)c2ccc(O)c(c2)-c2c(O)cc(O)cc21)NC(=O)C(CCCCN)NC(=O)C(CCCCNC(=O)c1ccc(OCc2ccccc2)cc1)NC(=O)c1ccc(OCc2ccccc2)cc1 (stereo not drawn) [MCC_000519] | xxxxx (xxxxx = <0.01) | xxxxx (xxxxx = <0.01) | xx (xx = 1-4)
4 | CCCCCCCCCCCCCC(=O)N[C@@H](CCCCN)C(=O)N[C@@H](CCCCN)C(=O)N[C@@H](CCCCN)C(=O)N[C@@H](CCCCNC(=O)[C@H]1NC(=O)[C@H]2NC(=O)[C@H](NC(=O)[C@@H]3NC(=O)[C@H](CC(N)=O)NC(=O)[C@H](NC(=O)[C@@H](CC(C)C)NC)[C@H](O)c4ccc(c(Cl)c4)Oc4cc3cc(c4O[C@@H]3O[C@H](CO)[C@@H](O)[C@H](O)[C@H]3O[C@H]3C[C@](C)(N)[C@H](O)[C@H](C)O3)Oc3ccc(cc3Cl)[C@H]2O)c2ccc(O)c(c2)-c2c(O)cc(O)cc21)C(=O)NC [MCC_000343] | xxxxx (xxxxx = <0.01) | xxxxx (xxxxx = <0.01) | xxxx (xxxx = 0.01-<0.1)
5 | CN[C@H](CC(C)C)C(=O)N[C@H]1C(=O)N[C@@H](CC(N)=O)C(=O)N[C@H]2C(=O)N[C@H]3C(=O)N[C@H](C(=O)N[C@H](C(=O)NCCCC[C@H](NC(=O)[C@H](CCCCN(C)C)NC(=O)c4ccc(Cl)cc4)C(=O)O)c4cc(O)cc(O)c4-c4cc3ccc4O)[C@H](O)c3ccc(c(Cl)c3)Oc3cc2cc(c3O[C@@H]2O[C@H](CO)[C@@H](O)[C@H](O)[C@H]2O[C@H]2C[C@](C)(N)[C@H](O)[C@H](C)O2)Oc2ccc(cc2Cl)[C@H]1O [MCC_007219] | x (x = >4) | xx (xx = 1-4) | x (x = >4)
6 | CCCCCCCCCC(=O)N[C@@H](CCCCN)C(=O)N1CCC(CNC(=O)[C@H]2NC(=O)[C@H]3NC(=O)[C@H](NC(=O)[C@@H]4NC(=O)[C@H](CC(N)=O)NC(=O)[C@H](NC(=O)[C@@H](CC(C)C)NC)[C@H](O)c5ccc(c(Cl)c5)Oc5cc4cc(c5O[C@@H]4O[C@H](CO)[C@@H](O)[C@H](O)[C@H]4O[C@H]4C[C@](C)(N)[C@H](O)[C@H](C)O4)Oc4ccc(cc4Cl)[C@H]3O)c3ccc(O)c(c3)-c3c(O)cc(O)cc32)CC1 [MCC_005488] | xxxx (xxxx = 0.01-<0.1) | xxxx (xxxx = 0.01-<0.1) | xx (xx = 1-4)
7 | CCCCCCCCCC(=O)NC(CCCNC(=N)N)C(=O)NC(CCCCN)C(=O)NCCCNC(=O)C1NC(=O)C2NC(=O)C(NC(=O)C3NC(=O)C(CC(N)=O)NC(=O)C(NC(=O)C(CC(C)C)NC)C(O)c4ccc(c(Cl)c4)Oc4cc3cc(c4OC3OC(CO)C(O)C(O)C3OC3CC(C)(N)C(O)C(C)O3)Oc3ccc(cc3Cl)C2O)c2ccc(O)c(c2)-c2c(O)cc(O)cc21 (stereo not drawn) [MCC_005487] | xxxx (xxxx = 0.01-<0.1) | xxxxx (xxxxx = <0.01) | xxx (xxx = 0.1-<1)
8 | CN[C@H](CC(C)C)C(=O)N[C@H]1C(=O)N[C@@H](CC(N)=O)C(=O)N[C@H]2C(=O)N[C@H]3C(=O)N[C@H](C(=O)N[C@H](C(=O)NCCCC[C@H](NC(=O)[C@H](CCCCN)NC(=O)[C@H](CCCCN)NC(=O)c4ccc(Cl)cc4)C(=O)O)c4cc(O)cc(O)c4-c4cc3ccc4O)[C@H](O)c3ccc(c(Cl)c3)Oc3cc2cc(c3O[C@@H]2O[C@H](CO)[C@@H](O)[C@H](O)[C@H]2O[C@H]2C[C@](C)(N)[C@H](O)[C@H](C)O2)Oc2ccc(cc2Cl)[C@H]1O [MCC_005505] | xx (xx = 1-4) | xx (xx = 1-4) | x (x = >4)
9 | CNC(=O)C(CCCCNC(=O)C1NC(=O)C2NC(=O)C(NC(=O)C3NC(=O)C(CC(N)=O)NC(=O)C(NC(=O)C(CC(C)C)NC)C(O)c4ccc(c(Cl)c4)Oc4cc3cc(c4OC3OC(CO)C(O)C(O)C3OC3CC(C)(N)C(O)C(C)O3)Oc3ccc(cc3Cl)C2O)c2ccc(O)c(c2)-c2c(O)cc(O)cc21)NC(=O)C(CCCCN)NC(=O)C(CCCCNC(=O)CCCCCc1ccccc1)NC(=O)CCCCCc1ccccc1 (stereo not drawn) [MCC_000508] | xxxxx (xxxxx = <0.01) | xxxxx (xxxxx = <0.01) | xx (xx = 1-4)
10 | CCCCCCCCCCC(=O)N[C@@H](CCCCN)C(=O)N[C@@H](CCCCN)C(=O)N[C@@H](CCCCN)C(=O)N[C@@H](CCCCNC(=O)[C@H]1NC(=O)[C@H]2NC(=O)[C@H](NC(=O)[C@@H]3NC(=O)[C@H](CC(N)=O)NC(=O)[C@H](NC(=O)[C@@H](CC(C)C)NC)[C@H](O)c4ccc(c(Cl)c4)Oc4cc3cc(c4O[C@@H]3O[C@H](CO)[C@@H](O)[C@H](O)[C@H]3O[C@H]3C[C@](C)(N)[C@H](O)[C@H](C)O3)Oc3ccc(cc3Cl)[C@H]2O)c2ccc(O)c(c2)-c2c(O)cc(O)cc21)C(=O)NC [MCC_000309] | xxxxx (xxxxx = <0.01) | xxxxx (xxxxx = <0.01) | xxx (xxx = 0.1-<1)
11 | CCCCCCCCCCC(=O)NCC(=O)N[C@@H](CCCCN)C(=O)N[C@@H](CCCCN)C(=O)N[C@@H](CCCCN)C(=O)N[C@@H](CCCCNC(=O)[C@H]1NC(=O)[C@H]2NC(=O)[C@H](NC(=O)[C@@H]3NC(=O)[C@H](CC(N)=O)NC(=O)[C@H](NC(=O)[C@@H](CC(C)C)NC)[C@H](O)c4ccc(c(Cl)c4)Oc4cc3cc(c4O[C@@H]3O[C@H](CO)[C@@H](O)[C@H](O)[C@H]3O[C@H]3C[C@](C)(N)[C@H](O)[C@H](C)O3)Oc3ccc(cc3Cl)[C@H]2O)c2ccc(O)c(c2)-c2c(O)cc(O)cc21)C(=O)O [MCC_000346] | xxxx (xxxx = 0.01-<0.1) | xxxx (xxxx = 0.01-<0.1) | x (x = >4)
12 | CCCCCCCCCCCN1CCC(C(=O)N[C@@H](CCCCN)C(=O)N[C@@H](CCCCN)C(=O)N[C@@H](CCCCNC(=O)[C@H]2NC(=O)[C@H]3NC(=O)[C@H](NC(=O)[C@@H]4NC(=O)[C@H](CC(N)=O)NC(=O)[C@H](NC(=O)[C@@H](CC(C)C)NC)[C@H](O)c5ccc(c(Cl)c5)Oc5cc4cc(c5O[C@@H]4O[C@H](CO)[C@@H](O)[C@H](O)[C@H]4O[C@H]4C[C@](C)(N)[C@H](O)[C@H](C)O4)Oc4ccc(cc4Cl)[C@H]3O)c3ccc(O)c(c3)-c3c(O)cc(O)cc32)C(N)=O)CC1 [MCC_004818] | xxxx (xxxx = 0.01-<0.1) | xxxx (xxxx = 0.01-<0.1) | xxx (xxx = 0.1-<1)
13 | CCCCCOc1ccc(C(=O)NC(CCCCN)C(=O)NC(CCCCN)C(=O)NCCCNC(=O)C2NC(=O)C3NC(=O)C(NC(=O)C4NC(=O)C(CC(N)=O)NC(=O)C(NC(=O)C(CC(C)C)NC)C(O)c5ccc(c(Cl)c5)Oc5cc4cc(c5OC4OC(CO)C(O)C(O)C4OC4CC(C)(N)C(O)C(C)O4)Oc4ccc(cc4Cl)C3O)c3ccc(O)c(c3)-c3c(O)cc(O)cc32)cc1 (stereo not drawn) [MCC_005361] | xxxx (xxxx = 0.01-<0.1) | xxxx (xxxx = 0.01-<0.1) | xx (xx = 1-4)
14 | CCCCCCCC(=O)N[C@@H](CCCCN)C(=O)N[C@@H](CCCCN)C(=O)N[C@@H](CCCCNC(=O)[C@H]1NC(=O)[C@H]2NC(=O)[C@H](NC(=O)[C@@H]3NC(=O)[C@H](CC(N)=O)NC(=O)[C@H](NC(=O)[C@@H](CC(C)C)NC)[C@H](O)c4ccc(c(Cl)c4)Oc4cc3cc(c4O[C@@H]3O[C@H](CO)[C@@H](O)[C@H](O)[C@H]3O[C@H]3C[C@](C)(N)[C@H](O)[C@H](C)O3)Oc3ccc(cc3Cl)[C@H]2O)c2ccc(O)c(c2)-c2c(O)cc(O)cc21)C(=O)O [MCC_005225] | xx (xx = 1-4) | xx (xx = 1-4) | x (x = >4)
